# Data: patent publication US7625923B2, “Bicyclic modulators of androgen receptor function” (Bristol-Myers Squibb Company, priority 2004, dated 2009)
# Assays:
# [1] = biological target: glucocorticoid receptor (endogenous, A549 cells) (Homo sapiens, UniProt P04150); details: concentration ≦10 μM; 10 ng/mL PMA; 7 h at 37° C.
# Method: The AP-1 assay is a cell-based luciferase reporter assay. A549 cells, which contain endogenous glucocorticoid receptor, were stably transfected with an AP-1 DNA binding site attached to the luciferase gene. Cells are then grown in RPMI+10% fetal calf serum (charcoal-treated)+Penicillin/Streptomycin with 0.5 mg/mL geneticin. Cells are plated the day before the assay at approximately 40000 cells/well. On assay day, the media is removed by aspiration and 20 μL assay buffer (RPMI without phenol red+10% FCS (charcoal-treated)+Pen/Strep) is added to each well. At this point either 20 μL assay buffer (control experiments), the compounds of the present invention (“test compounds”) (dissolved in DMSO and added at varying concentrations) or dexamethasome (100 nM in DMSO, positive control) are added to each well. The plates are then pre-incubated for 15 min at 37° C., followed by stimulation of the cells with 10 ng/mL PMA. The plates are then incubated for 7 h at 37° C. after which 40 μL luciferase substrate reagent is added to each well. Activity is measured by analysis in a luminometer as compared to control experiments treated with buffer or dexamethasome.
# [2] = biological target: T1, androgen receptor (Rattus norvegicus, UniProt P15207); details: castrated rats
# T1 sequence (P15207 1-902): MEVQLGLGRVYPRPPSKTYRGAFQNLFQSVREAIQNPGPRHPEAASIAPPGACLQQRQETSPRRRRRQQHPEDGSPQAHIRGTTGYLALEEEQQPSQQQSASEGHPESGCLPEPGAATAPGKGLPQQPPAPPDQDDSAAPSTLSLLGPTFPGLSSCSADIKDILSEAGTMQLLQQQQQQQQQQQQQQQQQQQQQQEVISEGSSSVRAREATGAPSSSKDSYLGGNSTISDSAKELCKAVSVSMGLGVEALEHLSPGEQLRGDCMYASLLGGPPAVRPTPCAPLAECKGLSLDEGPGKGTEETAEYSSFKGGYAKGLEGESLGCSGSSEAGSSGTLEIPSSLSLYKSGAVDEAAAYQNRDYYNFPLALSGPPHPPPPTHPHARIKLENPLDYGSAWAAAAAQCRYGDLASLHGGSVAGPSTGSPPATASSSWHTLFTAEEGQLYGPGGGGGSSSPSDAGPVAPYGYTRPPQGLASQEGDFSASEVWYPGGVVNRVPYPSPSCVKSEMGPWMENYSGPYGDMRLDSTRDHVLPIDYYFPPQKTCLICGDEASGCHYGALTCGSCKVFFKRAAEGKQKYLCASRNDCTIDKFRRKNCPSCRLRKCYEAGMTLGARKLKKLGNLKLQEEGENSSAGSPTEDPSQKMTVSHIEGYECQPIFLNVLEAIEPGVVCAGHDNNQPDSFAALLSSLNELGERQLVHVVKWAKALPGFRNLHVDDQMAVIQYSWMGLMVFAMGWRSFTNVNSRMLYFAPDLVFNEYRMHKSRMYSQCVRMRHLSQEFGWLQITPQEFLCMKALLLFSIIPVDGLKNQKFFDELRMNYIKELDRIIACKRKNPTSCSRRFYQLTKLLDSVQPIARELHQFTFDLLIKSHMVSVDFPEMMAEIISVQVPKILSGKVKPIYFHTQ
# Text: The basis of this assay lies in the well-defined action of androgenic agents on the maintenance and growth of muscle tissues and sexual accessory organs in animals and man. […] As described above, the effects of androgens on maintenance of male sexual accessory organs, such as the prostate and seminal vesicles, is well described. Castration results in rapid involution and atrophy of the prostate and seminal vesicles. This effect can be reversed by exogenous addition of androgens. Since both the levator ani muscle and the male sex organs are the tissues most responsive to the effects of androgenic agents, this model is used to determine the androgen dependent reversal of atrophy in the levator ani muscle and the sex accessory organs in immature castrated rats. Sexually mature rats (200-250 g, 6-8 weeks-old, Sprague-Dawley, Harlan) were acquired castrated from the vendor (Taconic). The rats were divided into groups and treated daily for 7 to 14 days with one of the following: • 1. Control vehicle • 2. […] TP plus Bicalutamide (administered p.o. in PEGTW, QD), a recognized antiandrogen, as a reference compound. • 4.
# At the end of the 7-14-day treatment, the animals were sacrificed by carbon dioxide, and the levator ani, seminal vesicle and ventral prostate weighed. […]
# [3] = system: wild type AR (MDA 453 cells); details: read-out: Kd for [3H]-DHT, Scatchard analysis, 4 h at 37° C.
# Method: For the whole-cell binding assay, human LNCaP cells (T877A mutant AR) or MDA 453 (wild type AR) in 96-well microtiter plates containing RPMI 1640 or DMEM supplemented with 10% charcoal stripped CA-FBS (Cocaleco Biologicals) respectively, were incubated at 37° C. to remove any endogenous ligand that might be complexed with the receptor in the cells.
# For the saturation analysis, the difference between the total binding and the non-specific binding, was defined as specific binding. […] See e.g. D. Rodbard, Mathematics and statistics of ligand assays: an illustrated guide: In: J. Langon and J. J. Clapp, eds., Ligand Assay, Masson Publishing U.S.A., Inc., New York, pp. 45-99, (1981), the disclosure of which is herein incorporated by reference.
# Two replicates were used for each sample.
# [formula] After correcting for non-specific binding, IC50 values were determined. […] C2C12 Mouse Myoblast Transactivation Assay
# Sequence of glucocorticoid receptor (endogenous, A549 cells) (P04150 whole entry): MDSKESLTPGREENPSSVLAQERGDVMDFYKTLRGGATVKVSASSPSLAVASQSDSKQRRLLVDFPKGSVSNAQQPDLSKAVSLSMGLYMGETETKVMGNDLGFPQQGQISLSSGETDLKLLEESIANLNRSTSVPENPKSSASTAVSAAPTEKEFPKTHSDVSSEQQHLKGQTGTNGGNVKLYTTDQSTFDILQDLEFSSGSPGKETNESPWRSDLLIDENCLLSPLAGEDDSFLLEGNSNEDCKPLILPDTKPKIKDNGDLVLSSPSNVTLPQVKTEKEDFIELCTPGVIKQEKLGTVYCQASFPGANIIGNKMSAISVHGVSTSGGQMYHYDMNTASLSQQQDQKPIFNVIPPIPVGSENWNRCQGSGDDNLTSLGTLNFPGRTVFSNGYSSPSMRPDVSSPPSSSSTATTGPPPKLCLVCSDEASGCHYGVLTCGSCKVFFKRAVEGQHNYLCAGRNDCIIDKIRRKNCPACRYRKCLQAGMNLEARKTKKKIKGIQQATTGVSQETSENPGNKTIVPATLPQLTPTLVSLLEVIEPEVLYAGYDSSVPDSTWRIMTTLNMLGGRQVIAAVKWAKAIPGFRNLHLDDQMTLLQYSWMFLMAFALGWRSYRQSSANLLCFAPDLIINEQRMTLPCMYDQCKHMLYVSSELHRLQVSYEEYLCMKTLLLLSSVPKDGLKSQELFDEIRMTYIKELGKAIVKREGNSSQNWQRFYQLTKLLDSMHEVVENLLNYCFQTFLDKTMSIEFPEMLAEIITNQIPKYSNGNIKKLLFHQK
compound,measurement,setting,value
C[C@@H]1C[C@H]2[C@@H]3CCC4=CC(=O)C=C[C@]4(C)[C@@]3(F)[C@@H](O)C[C@]2(C)[C@@]1(O)C(=O)CO [dexamethasone],% inhibition of the AP-1 reporter system vs buffer control with PMA alone,[1],65%
"CCC(=O)O[C@H]1CC[C@H]2[C@@H]3CCC4=CC(=O)CC[C@]4(C)[C@H]3CC[C@]12C [testosterone propionate, Testosterone Propionate]",EC50 (increase in organ weight),[2],~0.03 mg
tritiated dihydrotestosterone [[^3H]-DHT],Kd,[3],700 pM
